# Measurements as given in PubChem BioAssay (NCI).
#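 Test compounds were applied to cells in 96-well plates for 48 hours at 5 doses. Here, GI50 denotes the concentration required for 50% inhibition of growth. TGI marks complete inhibition of growth.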
# What was measured:
# Assay in all cases: NCI-60 cell line screen, 48 h
# [1] = tested on: IGROV1 ovarian
# [2] = tested on: HS 578T breast
# [3] = tested on: EKVX NSCLC
# [4] = tested on: SK-OV-3 ovarian
# [5] = tested on: SK-MEL-28 melanoma
# [6] = tested on: HCT-15 colon
# [7] = tested on: HOP-62 NSCLC
# [8] = tested on: U251 CNS
# [9] = tested on: HCT-116 colon
# [10] = tested on: DU-145 prostate
# [11] = tested on: CCRF-CEM leukemia
# [12] = tested on: MOLT-4 leukemia
# [13] = tested on: MDA-MB-231 breast
# [14] = tested on: PC-3 prostate
# [15] = tested on: BT-549 breast
# [16] = tested on: LOX IMVI melanoma
# [17] = tested on: SF-295 CNS
# [18] = tested on: OVCAR-4 ovarian
# [19] = tested on: SW-620 colon
# [20] = tested on: MCF7 breast
# [21] = tested on: HT29 colon
# [22] = tested on: UACC-257 melanoma
# [23] = tested on: OVCAR-8 ovarian
# [24] = tested on: RPMI-8226 leukemia
# [25] = tested on: SNB-19 CNS
# [26] = tested on: RXF 393 renal
# [27] = tested on: NCI-H460 lung
# [28] = tested on: KM12 colon
# [29] = tested on: SF-268 CNS
# [30] = tested on: SK-MEL-5 melanoma
# [31] = tested on: HOP-92 NSCLC
# [32] = tested on: K-562 leukemia
# [33] = tested on: HL-60(TB) leukemia
# [34] = tested on: OVCAR-3 ovarian
# [35] = tested on: A498 renal
# [36] = tested on: NCI-H522 lung
# [37] = tested on: UO-31 renal
# [38] = tested on: TK-10 renal
# [39] = tested on: SNB-75 CNS
# [40] = tested on: SK-MEL-2 melanoma
# [41] = tested on: SN12C renal
# [42] = tested on: A549 NSCLC
# [43] = tested on: NCI-H23 lung
# [44] = tested on: SR leukemia
# [45] = tested on: SF-539 CNS
# [46] = tested on: 786-0 renal
# [47] = tested on: HCC-2998 colon
# [48] = tested on: NCI-H226 lung
# [49] = tested on: COLO 205 colon
# [50] = tested on: NCI/ADR-RES ovarian
# [51] = tested on: OVCAR-5 ovarian
# [52] = tested on: MDA-MB-435
# [53] = tested on: ACHN renal
# [54] = tested on: CAKI-1 renal
# [55] = tested on: M14 melanoma
# [56] = tested on: UACC-62 melanoma
structure (smiles),measurement,setting,value
COc1ccc([C@H]2[C@@H](F)C(=O)N2c2cc(OC)c(OC)c(OC)c2)cc1F,GI50,[1],0.0946 µM
same,TGI,[1],> 100 µM
same,GI50,[2],0.295 µM
same,TGI,[2],> 100 µM
same,GI50,[3],202 nM
same,TGI,[3],> 100 µM
same,GI50,[4],3.45 µM
same,TGI,[4],> 100 µM
same,GI50,[5],15.8 µM
same,TGI,[5],> 100 µM
same,GI50,[6],0.0664 µM
same,TGI,[6],> 100 µM
same,GI50,[7],511 nM
same,TGI,[7],> 100 µM
same,GI50,[8],0.236 µM
same,TGI,[8],> 100 µM
same,GI50,[9],0.0325 µM
same,TGI,[9],> 100 µM
same,GI50,[10],0.269 µM
same,TGI,[10],> 100 µM
same,GI50,[11],47.1 nM
same,TGI,[11],> 100 µM
same,GI50,[12],146 nM
same,TGI,[12],93.4 µM
same,GI50,[13],0.355 µM
same,TGI,[13],> 100 µM
same,GI50,[14],0.042 µM
same,TGI,[14],> 100 µM
same,GI50,[15],0.0498 µM
same,TGI,[15],33.8 µM
same,GI50,[16],0.0904 µM
same,TGI,[16],> 100 µM
same,GI50,[17],0.0535 µM
same,TGI,[17],> 100 µM
same,GI50,[18],0.966 µM
same,TGI,[18],> 100 µM
same,GI50,[19],0.0562 µM
same,TGI,[19],> 100 µM
same,GI50,[20],36.4 nM
same,TGI,[20],> 100 µM
same,GI50,[21],0.134 µM
same,TGI,[21],> 100 µM
same,GI50,[22],> 100 µM
same,TGI,[22],> 100 µM
same,GI50,[23],0.368 µM
same,TGI,[23],> 100 µM
same,GI50,[24],0.055 µM
same,TGI,[24],37.3 µM
same,GI50,[25],0.302 µM
same,TGI,[25],> 100 µM
same,GI50,[26],0.0398 µM
same,TGI,[26],66 µM
same,GI50,[27],0.356 µM
same,TGI,[27],91.1 µM
same,GI50,[28],0.0596 µM
same,TGI,[28],> 100 µM
same,GI50,[29],0.324 µM
same,TGI,[29],> 100 µM
same,GI50,[30],45.6 nM
same,TGI,[30],350 nM
same,GI50,[31],266 nM
same,TGI,[31],63.9 µM
same,GI50,[32],0.0383 µM
same,TGI,[32],> 100 µM
same,GI50,[33],80.5 nM
same,TGI,[33],399 nM
same,GI50,[34],0.0465 µM
same,TGI,[34],492 nM
same,GI50,[35],847 nM
same,TGI,[35],8.08 µM
same,GI50,[36],38.3 nM
same,TGI,[36],> 100 µM
same,GI50,[37],171 nM
same,TGI,[37],> 100 µM
same,GI50,[38],38.6 µM
same,TGI,[38],> 100 µM
same,GI50,[39],> 100 µM
same,TGI,[39],> 100 µM
same,GI50,[40],303 nM
same,TGI,[40],> 100 µM
same,GI50,[41],0.482 µM
same,TGI,[41],> 100 µM
same,GI50,[42],0.394 µM
same,TGI,[42],> 100 µM
same,GI50,[43],0.273 µM
same,TGI,[43],> 100 µM
same,GI50,[44],40.8 nM
same,TGI,[44],> 100 µM
same,GI50,[45],0.028 µM
same,TGI,[45],217 nM
same,GI50,[46],46.2 nM
same,TGI,[46],15.1 µM
same,GI50,[47],406 nM
same,TGI,[47],> 100 µM
same,GI50,[48],22.2 µM
same,TGI,[48],> 100 µM
same,GI50,[49],0.156 µM
same,TGI,[49],503 nM
same,GI50,[50],0.0424 µM
same,TGI,[50],> 100 µM
same,GI50,[51],0.423 µM
same,TGI,[51],> 100 µM
CC(=O)[C@@]12O[C@@H]1CC1C3CCC4=CC(O)CCC4(C)C3CCC12C (some centres undefined),GI50,[1],31.8 µM
same,TGI,[1],> 100 µM
same,GI50,[2],27.9 µM
same,TGI,[2],90.2 µM
same,GI50,[3],> 100000 nM
same,TGI,[3],> 100 µM
same,GI50,[5],69.4 µM
same,TGI,[5],> 100 µM
same,GI50,[6],33.1 µM
same,TGI,[6],> 100 µM
same,GI50,[8],19.1 µM
same,TGI,[8],41.3 µM
same,GI50,[9],31.7 µM
same,TGI,[9],> 100 µM
same,GI50,[10],15 µM
same,TGI,[10],31.8 µM
same,GI50,[12],> 100000 nM
same,TGI,[12],> 100 µM
same,GI50,[13],12.5 µM
same,TGI,[13],26.8 µM
same,GI50,[14],40.3 µM
same,TGI,[14],> 100 µM
same,GI50,[15],27.8 µM
same,TGI,[15],> 100 µM
same,GI50,[16],44.4 µM
same,TGI,[16],> 100 µM
same,GI50,[17],12.2 µM
same,TGI,[17],56.5 µM
same,GI50,[18],23.2 µM
same,TGI,[18],> 100 µM
same,GI50,[19],39.5 µM
same,TGI,[19],> 100 µM
same,GI50,[20],> 100000 nM
same,TGI,[20],> 100 µM
same,GI50,[21],47.9 µM
same,TGI,[21],> 100 µM
same,GI50,[22],> 100 µM
same,TGI,[22],> 100 µM
same,GI50,[52],> 100 µM
same,TGI,[52],> 100 µM
same,GI50,[23],23.3 µM
same,TGI,[23],82.3 µM
same,GI50,[24],21.6 µM
same,TGI,[24],97.1 µM
same,GI50,[25],38.8 µM
same,TGI,[25],> 100 µM
same,GI50,[26],28.6 µM
same,TGI,[26],65.6 µM
same,GI50,[27],70.8 µM
same,TGI,[27],> 100 µM
same,GI50,[28],24.7 µM
same,TGI,[28],> 100 µM
same,GI50,[29],83.5 µM
same,TGI,[29],> 100 µM
same,GI50,[30],> 100000 nM
same,TGI,[30],> 100000 nM
same,GI50,[53],44.9 µM
same,TGI,[53],> 100 µM
same,GI50,[32],55.5 µM
same,TGI,[32],> 100 µM
same,GI50,[33],> 100000 nM
same,TGI,[33],> 100000 nM
same,GI50,[34],78.5 µM
same,TGI,[34],> 100000 nM
same,GI50,[35],2040 nM
same,TGI,[35],59.1 µM
same,GI50,[54],> 100 µM
same,TGI,[54],> 100 µM
same,GI50,[55],95.9 µM
same,TGI,[55],> 100 µM
same,GI50,[56],> 100 µM
same,TGI,[56],> 100 µM
same,GI50,[36],> 100000 nM
same,TGI,[36],> 100 µM
same,GI50,[37],> 100000 nM
same,TGI,[37],> 100 µM
same,GI50,[38],15.9 µM
same,TGI,[38],56.9 µM
same,GI50,[39],18.7 µM
same,TGI,[39],50.8 µM
same,GI50,[40],> 100000 nM
same,TGI,[40],> 100 µM
same,GI50,[41],81 µM
same,TGI,[41],> 100 µM
same,GI50,[42],72.7 µM
same,TGI,[42],> 100 µM
same,GI50,[43],55.8 µM
same,TGI,[43],> 100 µM
same,GI50,[44],> 100000 nM
same,TGI,[44],> 100 µM
same,GI50,[45],39 µM
same,TGI,[45],> 100000 nM
same,GI50,[46],> 100000 nM
same,TGI,[46],> 100 µM
same,GI50,[48],75.9 µM
same,TGI,[48],> 100 µM
same,GI50,[49],57.4 µM
same,TGI,[49],> 100000 nM
same,GI50,[50],20.4 µM
same,TGI,[50],> 100 µM
same,GI50,[51],27.9 µM
same,TGI,[51],88.3 µM
